#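 Protocol summary: plate cells (96-well), add compound at 5 concentrations, incubate 48 h, interpolate endpoints linearly. GI50 is the concentration that inhibits growth by half.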 Active and inactive are the calls of the source. Rule as the data show it: active = GI50 up to about 1.1 µM and inactive = higher.
# Assays:
# Assay in all cases: inhibition of tumour cell growth, NCI panel, 48 h
# [1] = tested on: 786-0
# [2] = tested on: A498
# [3] = tested on: A549
# [4] = tested on: ACHN
# [5] = tested on: CCRF-CEM
# [6] = tested on: COLO 205
# [7] = tested on: DLD-1
# [8] = tested on: DMS-114
# [9] = tested on: EKVX
# [10] = tested on: HCC 2998
# [11] = tested on: HCT-116
# [12] = tested on: HCT-15
# [13] = tested on: HL-60
# [14] = tested on: HOP-18
# [15] = tested on: HOP-62
# [16] = tested on: HT-29
# [17] = tested on: K562
# [18] = tested on: KM-20L2
# [19] = tested on: KM12
# [20] = tested on: LOX IMVI
# [21] = tested on: LXFL 529
# [22] = tested on: M14
# [23] = tested on: M19-MEL
# [24] = tested on: MOLT-4
# [25] = tested on: Malme-3M
# [26] = tested on: NCI-H226
# [27] = tested on: NCI-H23
# [28] = tested on: NCI-H460
# [29] = tested on: NCI-H522
# [30] = tested on: OVCAR-3
# [31] = tested on: OVCAR-4
# [32] = tested on: OVCAR-5
# [33] = tested on: OVCAR-8
# [34] = tested on: RPMI-8226
# [35] = tested on: RXF 393
# [36] = tested on: SF-268
# [37] = tested on: SF-295
# [38] = tested on: SF-539
# [39] = tested on: SK-MEL-28
# [40] = tested on: SK-MEL-2
# [41] = tested on: SK-OV-3
# [42] = tested on: SN12C
# [43] = tested on: SNB-19
# [44] = tested on: SNB-75
# [45] = tested on: SNB-78
# [46] = tested on: SW-620
# [47] = tested on: TK-10
# [48] = tested on: U-251
# [49] = tested on: UACC-257
# [50] = tested on: UACC-62
# [51] = tested on: UO-31
# [52] = tested on: XF498
# [53] = tested on: DMS-273
# [54] = tested on: SK-MEL-5
# [55] = tested on: CAKI-1
# [56] = tested on: HOP-92
# [57] = tested on: IGROV-1
# [58] = tested on: SR
structure (smiles),measurement,setting,value
O=C(CC1(O)C(=O)Nc2ccc([N+](=O)[O-])cc21)c1ccc(Br)cc1 (centres undefined),GI50,[1],61 µM (inactive)
same,GI50,[2],23.2 µM (inactive)
same,GI50,[3],> 100 µM (inactive)
same,GI50,[4],56.6 µM (inactive)
same,GI50,[5],47.4 µM (inactive)
same,GI50,[6],> 100 µM (inactive)
same,GI50,[7],45.3 µM (inactive)
same,GI50,[8],32.1 µM (inactive)
same,GI50,[9],> 100 µM (inactive)
same,GI50,[10],> 100 µM (inactive)
same,GI50,[11],37.2 µM (inactive)
same,GI50,[12],> 100 µM
same,GI50,[13],18.6 µM (inactive)
same,GI50,[14],> 100 µM (inactive)
same,GI50,[15],> 100 µM (inactive)
same,GI50,[16],> 100 µM (inactive)
same,GI50,[17],54.6 µM (inactive)
same,GI50,[18],> 100 µM (inactive)
same,GI50,[19],42.9 µM (inactive)
same,GI50,[20],60.4 µM (inactive)
same,GI50,[21],47.1 µM (inactive)
same,GI50,[22],> 100 µM (inactive)
same,GI50,[23],19.5 µM (inactive)
same,GI50,[24],35.8 µM (inactive)
same,GI50,[25],> 100 µM (inactive)
same,GI50,[26],85.1 µM (inactive)
same,GI50,[27],40.6 µM (inactive)
same,GI50,[28],> 100 µM (inactive)
same,GI50,[29],19.6 µM (inactive)
same,GI50,[30],43 µM (inactive)
same,GI50,[31],49.7 µM (inactive)
same,GI50,[32],> 100 µM (inactive)
same,GI50,[33],39.8 µM (inactive)
same,GI50,[34],35.5 µM (inactive)
same,GI50,[35],28.6 µM (inactive)
same,GI50,[36],55.1 µM (inactive)
same,GI50,[37],52.6 µM (inactive)
same,GI50,[38],59.4 µM (inactive)
same,GI50,[39],> 100 µM (inactive)
same,GI50,[40],> 100 µM (inactive)
same,GI50,[41],25.1 µM (inactive)
same,GI50,[42],> 100 µM (inactive)
same,GI50,[43],44.3 µM (inactive)
same,GI50,[44],23.3 µM (inactive)
same,GI50,[45],23.2 µM (inactive)
same,GI50,[46],> 10 µM (inactive)
same,GI50,[47],32.7 µM (inactive)
same,GI50,[48],22.3 µM (inactive)
same,GI50,[49],69.8 µM (inactive)
same,GI50,[50],47.2 µM (inactive)
same,GI50,[51],45.1 µM (inactive)
same,GI50,[52],32.3 µM (inactive)
COc1ccc2c(=O)oc3c(OC)cc(CCN(C)C)c4c(=O)oc1c2c34,GI50,[2],20.5 µM (inactive)
same,GI50,[5],1.49 µM (inactive)
same,GI50,[6],4.94 µM (inactive)
same,GI50,[7],22.8 µM (inactive)
same,GI50,[8],12.1 µM (inactive)
same,GI50,[53],15.6 µM (inactive)
same,GI50,[10],12.4 µM (inactive)
same,GI50,[14],14.4 µM (inactive)
same,GI50,[15],14.2 µM (inactive)
same,GI50,[17],2.56 µM (inactive)
same,GI50,[18],14.9 µM (inactive)
same,GI50,[21],13.3 µM (inactive)
same,GI50,[22],17.4 µM (inactive)
same,GI50,[23],14.5 µM (inactive)
same,GI50,[24],11.5 µM (inactive)
same,GI50,[25],14.5 µM (inactive)
same,GI50,[26],17.9 µM (inactive)
same,GI50,[27],17.8 µM (inactive)
same,GI50,[29],12.5 µM (inactive)
same,GI50,[30],16.1 µM (inactive)
same,GI50,[32],17.9 µM (inactive)
same,GI50,[33],10.4 µM (inactive)
same,GI50,[36],12.9 µM (inactive)
same,GI50,[40],17.7 µM (inactive)
same,GI50,[54],12.3 µM (inactive)
same,GI50,[42],13.8 µM (inactive)
same,GI50,[43],14.3 µM (inactive)
same,GI50,[45],14.3 µM (inactive)
same,GI50,[48],14.4 µM (inactive)
same,GI50,[50],17.9 µM (inactive)
CN/N=C(\C(=O)Nc1ccc([N+](=O)[O-])cc1[N+](=O)[O-])C1NC(=O)NC1=O (centres undefined),GI50,[1],> 100 µM (inactive)
same,GI50,[2],> 100 µM (inactive)
same,GI50,[3],> 100 µM (inactive)
same,GI50,[4],> 100 µM (inactive)
same,GI50,[55],> 100 µM (inactive)
same,GI50,[5],> 100 µM (inactive)
same,GI50,[6],> 100 µM (inactive)
same,GI50,[7],> 100 µM (inactive)
same,GI50,[8],> 100 µM (inactive)
same,GI50,[53],32.2 µM (inactive)
same,GI50,[9],> 100 µM (inactive)
same,GI50,[10],> 100 µM (inactive)
same,GI50,[11],> 100 µM (inactive)
same,GI50,[12],> 100 µM
same,GI50,[13],> 100 µM (inactive)
same,GI50,[14],> 100 µM (inactive)
same,GI50,[15],> 100 µM (inactive)
same,GI50,[56],> 100 µM (inactive)
same,GI50,[16],80.5 µM (inactive)
same,GI50,[57],> 100 µM (inactive)
same,GI50,[17],> 100 µM (inactive)
same,GI50,[18],> 100 µM (inactive)
same,GI50,[19],> 100 µM (inactive)
same,GI50,[20],38.1 µM (inactive)
same,GI50,[21],> 100 µM (inactive)
same,GI50,[22],> 100 µM (inactive)
same,GI50,[23],> 100 µM (inactive)
same,GI50,[24],> 100 µM (inactive)
same,GI50,[25],> 100 µM (inactive)
same,GI50,[26],> 100 µM (inactive)
same,GI50,[27],> 100 µM (inactive)
same,GI50,[28],> 100 µM (inactive)
same,GI50,[30],> 100 µM (inactive)
same,GI50,[31],> 100 µM (inactive)
same,GI50,[32],> 100 µM (inactive)
same,GI50,[33],> 100 µM (inactive)
same,GI50,[34],> 100 µM (inactive)
same,GI50,[35],> 100 µM (inactive)
same,GI50,[36],> 100 µM (inactive)
same,GI50,[37],> 100 µM (inactive)
same,GI50,[38],> 100 µM (inactive)
same,GI50,[39],> 100 µM (inactive)
same,GI50,[40],> 100 µM (inactive)
same,GI50,[54],> 100 µM (inactive)
same,GI50,[41],> 100 µM (inactive)
same,GI50,[42],> 100 µM (inactive)
same,GI50,[43],> 100 µM (inactive)
same,GI50,[44],> 100 µM (inactive)
same,GI50,[45],> 100 µM (inactive)
same,GI50,[58],> 100 µM (inactive)
same,GI50,[46],40.3 µM (inactive)
same,GI50,[47],> 100 µM (inactive)
same,GI50,[48],27.9 µM (inactive)
same,GI50,[49],> 100 µM (inactive)
same,GI50,[50],> 100 µM (inactive)
same,GI50,[51],> 100 µM (inactive)
COC(=O)C1C(/C=C/c2ccoc2)ON2CCC[C@@H]12 (some centres undefined),GI50,[1],> 100 µM (inactive)
same,GI50,[3],> 100 µM (inactive)
same,GI50,[4],67.8 µM (inactive)
same,GI50,[55],> 100 µM (inactive)
same,GI50,[6],> 100 µM (inactive)
same,GI50,[7],> 100 µM (inactive)
same,GI50,[8],> 100 µM (inactive)
same,GI50,[53],36.2 µM (inactive)
same,GI50,[9],> 100 µM (inactive)
same,GI50,[10],> 100 µM (inactive)
same,GI50,[13],> 100 µM (inactive)
same,GI50,[14],70.3 µM (inactive)
same,GI50,[15],> 100 µM (inactive)
same,GI50,[56],> 100 µM (inactive)
same,GI50,[16],> 100 µM (inactive)
same,GI50,[18],> 100 µM (inactive)
same,GI50,[19],> 100 µM (inactive)
same,GI50,[20],> 100 µM (inactive)
same,GI50,[21],> 100 µM (inactive)
same,GI50,[22],> 100 µM (inactive)
same,GI50,[23],> 100 µM (inactive)
same,GI50,[25],33.6 µM (inactive)
same,GI50,[26],> 100 µM (inactive)
same,GI50,[27],> 100 µM (inactive)
same,GI50,[28],> 100 µM (inactive)
same,GI50,[29],> 100 µM (inactive)
same,GI50,[30],> 100 µM (inactive)
same,GI50,[31],> 100 µM (inactive)
same,GI50,[32],> 100 µM (inactive)
same,GI50,[33],> 100 µM (inactive)
same,GI50,[35],47.8 µM (inactive)
same,GI50,[36],> 100 µM (inactive)
same,GI50,[37],> 100 µM (inactive)
same,GI50,[38],> 100 µM (inactive)
same,GI50,[39],> 100 µM (inactive)
same,GI50,[40],> 100 µM (inactive)
same,GI50,[42],> 100 µM (inactive)
same,GI50,[43],> 100 µM (inactive)
same,GI50,[44],87.5 µM (inactive)
same,GI50,[45],> 100 µM (inactive)
same,GI50,[58],> 100 µM (inactive)
same,GI50,[46],> 100 µM (inactive)
same,GI50,[47],> 100 µM (inactive)
same,GI50,[48],> 100 µM (inactive)
same,GI50,[49],> 100 µM (inactive)
same,GI50,[51],> 100 µM (inactive)
